Here are results for 23 molecules from patent US9150575B2, “Piperidinylpyrazolopyridine derivative” (Daiichi Sankyo Company, Limited, priority 2012, dated 2015).

For the experiment, the target named is T1, LCAT (Homo sapiens, UniProt P04180).
T1 construct: The obtained fraction was dialyzed against phosphate-buffered saline (pH 7.4) and used as an enzyme source and an acceptor for LCAT; from tissue; host or cells: HDL3 fraction (1.125<specific gravity<1.210 g/mL) of plasma from a healthy person
T1 sequence (P04180 25-440): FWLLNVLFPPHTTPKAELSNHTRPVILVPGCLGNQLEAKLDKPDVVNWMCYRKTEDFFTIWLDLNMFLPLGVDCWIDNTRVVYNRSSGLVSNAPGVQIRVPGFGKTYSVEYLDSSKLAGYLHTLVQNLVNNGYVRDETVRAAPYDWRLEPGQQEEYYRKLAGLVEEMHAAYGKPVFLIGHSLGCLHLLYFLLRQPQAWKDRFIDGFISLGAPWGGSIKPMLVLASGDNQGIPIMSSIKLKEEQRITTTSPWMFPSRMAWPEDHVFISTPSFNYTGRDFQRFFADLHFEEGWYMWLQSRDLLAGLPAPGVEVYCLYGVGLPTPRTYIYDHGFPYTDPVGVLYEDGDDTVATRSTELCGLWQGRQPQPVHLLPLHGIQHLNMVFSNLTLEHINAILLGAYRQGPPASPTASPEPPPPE
As to the kind of experiment: LCAT Activity Measurement (In Vitro). Particulars: EC50 of LCAT activation; HDL3 fraction from plasma of a healthy person as enzyme source and acceptor; [14C]cholesterol; 37° C., approximately 16 hours. The class given is biochemical. The protocol:
A fraction composed of HDL3 (1.125<specific gravity<1.210 g/mL) was obtained from the plasma of a healthy person by density gradient centrifugation. The obtained fraction was dialyzed against phosphate-buffered saline (pH 7.4) and used as an enzyme source and an acceptor for LCAT. Each test drug was prepared by dissolution in dimethyl sulfoxide. [14C]Cholesterol containing DTNB (Ellman's reagent, final concentration: 0.5 mM), mercaptoethanol (final concentration: 12.5 mM), and 0.6% bovine serum albumin was added to phosphate-buffered saline (pH 7.4) containing 1 mg/mL HDL3, and the test drug was further added thereto at varying concentrations to adjust the whole amount to 80 μL. This mixture was incubated at 37° C. for approximately 16 hours. Then, a mixed solution of hexane and isopropanol (mixing ratio=3:2) was added thereto to stop the reaction. After stirring, the hexane layer was collected, and this layer was evaporated to dryness. A chloroform solution (concentration: 10 mg/mL) was added thereto, and the mixture was spotted onto a thin-layer silica gel plate and developed using a mixed solution of hexane, diethyl ether, and ethyl acetate (mixing ratio=85:15:2). The radioactivity of a portion corresponding to cholesterol oleate was measured using an imaging analyzer BAS-2500 (manufactured by Fujifilm Corp.). A sample non-supplemented with the test drug was similarly treated and assayed. The EC50 value of LCAT activation was calculated according to the expression given below relative to LCAT activity in the sample non-supplemented with the test drug.
wherein X represents the logarithm of the concentration of the test drug;
Y represents the responsiveness (LCAT activity) of the test drug;
Top represents the maximum value (maximum plateau);
Bottom represents the minimum value (minimum plateau); and
EC50 represents the 50% effective concentration.

Turning to `COc1ccnc(N2CCC(c3n[nH]c4c3C(O)(C(F)(F)F)CC(=O)N4)CC2)c1` (centres unmarked) [Example 39, 4-Hydroxy-3-[1-(4-methoxypyridin-2-yl)piperidin-4-yl]-4-(trifluoromethyl)-1,4,5,7-tetrahydro-6H-pyrazolo[3,4-b]pyridin-6-one], the EC50 amounted to 330 nM.

With `COc1cncc(N2CCC(c3n[nH]c4c3C(O)(C(F)(F)F)CC(=O)N4)CC2)c1` (centres unmarked) [Example 40, 4-Hydroxy-3-[1-(5-methoxypyridin-3-yl)piperidin-4-yl]-4-(trifluoromethyl)-1,4,5,7-tetrahydro-6H-pyrazolo[3,4-b]pyridin-6-one], the response was half-maximal at 1710 nM (EC50).

For `O=C1CC(O)(C(F)(F)F)c2c(C3CCN(c4ccc(C(F)(F)F)nc4)CC3)n[nH]c2N1` (centres unmarked) [Example 41, 4-Hydroxy-4-(trifluoromethyl)-3-{1-[6-(trifluoromethyl)pyridin-3-yl]piperidin-4-yl}-1,4,5,7-tetrahydro-6H-pyrazolo[3,4-b]pyridin-6-one], the EC50 came out at 26 nM.

`Cc1cc(N2CCC(c3n[nH]c4c3C(O)(C(F)(F)F)CC(=O)N4)CC2)ncc1C#N` (centres unmarked) [Example 42, 6-{4-[4-Hydroxy-6-oxo-4-(trifluoromethyl)-4,5,6,7-tetrahydro-1H-pyrazolo[3,4-b]pyridin-3-yl]piperidin-1-yl}-4-methylpyridine-3-carbonitrile]: the EC50 was 140 nM.

As to `O=C1CC(O)(C(F)(F)F)c2c(C3CCN(c4ccc(C(F)(F)F)nn4)CC3)n[nH]c2N1` (centres unmarked) [Example 43, 4-Hydroxy-4-(trifluoromethyl)-3-{1-[6-(trifluoromethyl)pyridazin-3-yl]piperidin-4-yl}-1,4,5,7-tetrahydro-6H-pyrazolo[3,4-b]pyridin-6-one], it took 56 nM to reach a half-maximal effect (EC50).

For the molecule `O=C1CC(O)(C(F)(F)F)c2c(C3CCN(c4ncc(C(F)(F)F)cn4)CC3)n[nH]c2N1` (centres unmarked) [Example 44, 4-Hydroxy-4-(trifluoromethyl)-3-{1-[5-(trifluoromethyl)pyrimidin-2-yl]piperidin-4-yl}-1,4,5,7-tetrahydro-6H-pyrazolo[3,4-b]pyridin-6-one], the half-maximal effective concentration (EC50) turned out to be 360 nM.

The molecule `O=C1CC(O)(C(F)(F)F)c2c(C3CCN(c4cc(C(F)(F)F)ncn4)CC3)n[nH]c2N1` (centres unmarked) [Example 45, 4-Hydroxy-4-(trifluoromethyl)-3-{1-[6-(trifluoromethyl)pyrimidin-4-yl]piperidin-4-yl}-1,4,5,7-tetrahydro-6H-pyrazolo[3,4-b]pyridin-6-one] registered a concentration for a half-maximal effect (EC50) of 140 nM.

Consider `O=C1CC(O)(C(F)(F)F)c2c(C3CCN(c4cnc(C(F)(F)F)cn4)CC3)n[nH]c2N1` (centres unmarked) [Example 46, 4-Hydroxy-4-(trifluoromethyl)-3-{1-[5-(trifluoromethyl)pyrazin-2-yl]piperidin-4-yl}-1,4,5,7-tetrahydro-6H-pyrazolo[3,4-b]pyridin-6-one], for which the EC50 was determined as 12 nM.

In turn, `O=C1CC(O)(C(F)(F)F)c2c(C3CCN(c4nnc(C(F)(F)F)s4)CC3)n[nH]c2N1` (centres unmarked) [Example 47, 4-Hydroxy-4-(trifluoromethyl)-3-{1-[5-(trifluoromethyl)-1,3,4-thiadiazol-2-yl]piperidin-4-yl}-1,4,5,7-tetrahydro-6H-pyrazolo[3,4-b]pyridin-6-one] yielded a half-maximal effective concentration (EC50) of 96 nM.

In turn, `O=C1CC(O)(C(F)(F)F)c2c(C3CCN(c4ccc(OC(F)F)cn4)CC3)n[nH]c2N1` (centres unmarked) [Example 51, 3-{1-[5-(Difluoromethoxy)pyridin-2-yl]piperidin-4-yl}-4-hydroxy-4-(trifluoromethyl)-1,4,5,7-tetrahydro-6H-pyrazolo[3,4-b]pyridin-6-one] had an EC50 of 81 nM.

Molecule `CC(C)Oc1ccc(N2CCC(c3n[nH]c4c3C(O)(C(F)(F)F)CC(=O)N4)CC2)nc1` (centres unmarked) [Example 52, 4-Hydroxy-3-{1-[5-(propan-2-yloxy)pyridin-2-yl]piperidin-4-yl}-4-(trifluoromethyl)-1,4,5,7-tetrahydro-6H-pyrazolo[3,4-b]pyridin-6-one] came in with an EC50 of 67 nM.

In the case of `O=C1CC(O)(C(F)(F)F)c2c(C3CCN(c4cncc(C(F)(F)F)c4)CC3)n[nH]c2N1` (centres unmarked) [Example 53, 4-Hydroxy-4-(trifluoromethyl)-3-{1-[5-(trifluoromethyl)pyridin-3-yl]piperidin-4-yl}-1,4,5,7-tetrahydro-6H-pyrazolo[3,4-b]pyridin-6-one], the midpoint of the response, the EC50, lay at 50 nM.

Molecule `O=C1CC(O)(C(F)(F)F)c2c(C3CCN(c4ccc(OC(F)F)nc4)CC3)n[nH]c2N1` (centres unmarked) [Example 54, 3-{1-[6-(Difluoromethoxy)pyridin-3-yl]piperidin-4-yl}-4-hydroxy-4-(trifluoromethyl)-1,4,5,7-tetrahydro-6H-pyrazolo[3,4-b]pyridin-6-one] came in with an EC50 of 70 nM.

For `O=C1CC(O)(C(F)(F)F)c2c(C3CCN(c4ccc(OC(F)F)cc4)CC3)n[nH]c2N1` (centres unmarked) [Example 55, 3-{1-[4-(Difluoromethoxy)phenyl]piperidin-4-yl}-4-hydroxy-4-(trifluoromethyl)-1,4,5,7-tetrahydro-6H-pyrazolo[3,4-b]pyridin-6-one], the EC50 came to 79 nM.

For the molecule `CC(C)Oc1ccc(N2CCC(c3n[nH]c4c3C(O)(C(F)(F)F)CC(=O)N4)CC2)cn1` (centres unmarked) [Example 57, 4-Hydroxy-3-{1-[6-(propan-2-yloxy)pyridin-3-yl]piperidin-4-yl}-4-(trifluoromethyl)-1,4,5,7-tetrahydro-6H-pyrazolo[3,4-b]pyridin-6-one], the midpoint of the response, the EC50, lay at 100 nM.

`O=C1CC(O)(C(F)(F)F)c2c(C3CCN(c4ccc(OC(F)(F)F)cc4)CC3)n[nH]c2N1` (centres unmarked) [Example 58, 4-Hydroxy-3-{1-[4-(trifluoromethoxy)phenyl]piperidin-4-yl}-4-(trifluoromethyl)-1,4,5,7-tetrahydro-6H-pyrazolo[3,4-b]pyridin-6-one] displayed an EC50 of 20 nM.

Consider `CCOc1ccc(N2CCC(c3n[nH]c4c3C(O)(C(F)(F)F)CC(=O)N4)CC2)cc1` (centres unmarked) [Example 59, 3-[1-(4-Ethoxyphenyl)piperidin-4-yl]-4-hydroxy-4-(trifluoromethyl)-1,4,5,7-tetrahydro-6H-pyrazolo[3,4-b]pyridin-6-one], for which the EC50 worked out at 260 nM.

`N#Cc1cc(N2CCC(c3n[nH]c4c3C(O)(C(F)(F)F)CC(=O)N4)CC2)ccc1OC(F)F` (centres unmarked) [Example 60, 2-(Difluoromethoxy)-5-{4-[4-hydroxy-6-oxo-4-(trifluoromethyl)-4,5,6,7-tetrahydro-1H-pyrazolo[3,4-b]pyridin-3-yl]piperidin-1-yl}benzonitrile]: a half-maximal response (EC50) required 21 nM.

For the molecule `O=C1CC(O)(C(F)(F)F)c2c(C3CCN(c4ccc(OC5CCC5)nc4)CC3)n[nH]c2N1` (centres unmarked) [Example 61, 3-{1-[6-(Cyclobutoxy)pyridin-3-yl]piperidin-4-yl}-4-hydroxy-4-(trifluoromethyl)-1,4,5,7-tetrahydro-6H-pyrazolo[3,4-b]pyridin-6-one], the midpoint of the response, the EC50, lay at 100 nM.

`N#Cc1cc(N2CCC(c3n[nH]c4c3C(O)(C(F)(F)F)CC(=O)N4)CC2)ccc1OC(F)(F)F` (centres unmarked) [Example 62, 5-{4-[4-Hydroxy-6-oxo-4-(trifluoromethyl)-4,5,6,7-tetrahydro-1H-pyrazolo[3,4-b]pyridin-3-yl]piperidin-1-yl}-2-(trifluoromethoxy)benzonitrile] yielded a concentration giving a half-maximal response (EC50) of 7 nM.

`O=C1CC(O)(C(F)(F)F)c2c(C3CCN(c4cnc(OC(F)F)c(OC(F)F)c4)CC3)n[nH]c2N1` (centres unmarked) [Example 63, 3-{1-[5,6-bis(Difluoromethoxy)pyridin-3-yl]piperidin-4-yl}-4-hydroxy-4-(trifluoromethyl)-1,4,5,7-tetrahydro-6H-pyrazolo[3,4-b]pyridin-6-one]: the EC50 stood at 31 nM.

Take `CC(C)c1ccc(N2CCC(c3n[nH]c4c3C(O)(C(F)(F)F)CC(=O)N4)CC2)nc1` (centres unmarked) [Example 64, 4-Hydroxy-3-{1-[5-isopropylpyridin-2-yl]piperidin-4-yl]-4-(trifluoromethyl)-1,4,5,7-tetrahydro-6H-pyrazolo[3,4-b]pyridin-6-one]: the concentration for a half-maximal effect (EC50) was found to be 56 nM.

With `O=C1CC(O)(C(F)(F)F)c2c(C3CCN(c4cnc(C(F)(F)F)nc4)CC3)n[nH]c2N1` (centres unmarked) [Example 65, 4-Hydroxy-4-(trifluoromethyl)-3-{1-[2-(trifluoromethyl)pyrimidin-5-yl]piperidin-4-yl}-1,4,5,7-tetrahydro-6H-pyrazolo[3,4-b]pyridin-6-one], the EC50 turned out to be 13 nM.
